Experimental data published in US11059827B2, “Compounds and compositions useful for treating disorders related to NTRK” (Blueprint Medicines Corporation, priority 2015, dated 2021).

How the values were obtained:
[1] = system: KM12 Cliff (G595R) cell line; assay: NTRK G595R mutant cellular assay (KM12 Cliff, CellTiter-Glo); format: cell-based; settings: KM12 Cliff (G595R) cells, 72 hr
Procedure: (§1) NTRK Wild Type and G595R Mutant Cellular Assays Protocol
(§2) KM12 wild type colon carcinoma cell line harboring the TPM3-NTRK1 fusion protein was obtained from the National Cancer Institute (NCI). This line has been previously shown to be dependent upon the NTRK activity derived from the NTRK fusion protein for growth and survival. […] Cells were first plated in 384-well plates at 1000 cells/well in complete media (10% FBS and 1% pen/strep) and incubated overnight at 37° C. Cells were then dosed with test articles at varying concentrations using the Bravo liquid handling system. Concentrations ranged from 25 uM down to […] (4-fold dilutions, 10 concentrations total). Each compound was run in duplicate per plate. DMSO and staurosporine (25 uM) were included on each plate as negative and positive controls for growth inhibition. 72 hr after dosing, assay plates were developed using CellTiter-Glo (Promega) and resultant luminescence was read on the Envision plate reader. IC50 determinations were calculated using a 4-parameter curve fitting algorithm

[2] = system: KM12 wild type colon carcinoma cell line harboring the TPM3-NTRK1 fusion protein; assay: NTRK wild type cellular assay (KM12, CellTiter-Glo); format: cell-based; settings: KM12 wild type cells, 72 hr
Procedure: as §1, §2

- IC50 [2]: 10 to 100 nM
Structure (SMILES): N#Cc1cnn2cc(F)c(N3C[C@@H](F)C[C@@H]3c3cc(F)cc(C(N)=O)c3)nc12 [Compound 15]
- IC50 [1]: 10 to 100 nM
